Results on 12 compounds are retold here after patent US10233192B2, “Derivatives of uncialamycin, methods of synthesis and their use as antitumor agents” (priority 2013, dated 2019).

Data set [1] relates to ADR multi-drug resistant breast cancer cell line. Put plainly: ATP luminescence (CellTiter-Glo) cell viability assay, ADR. In kind it is cell-based. The note with it: 72 h, read-out: EC50 (nM) ADR. The method, then: (§1) An ATP luminescence assay was used, the procedure being as follows: Cells were seeded at 1×10^3 cells/well in 96-well plates for 3 h for ATP CellTiter^Glo™ assays, respectively. Serial dilutions (1:3) of compounds were added to the wells. Plates were allowed to incubate for 72 h. A CellTiter^Glo™ cell viability kit from Promega was used to measure ATP content of cells treated with compounds following manufacturer's instruction. A decrease in the ATP content is a measure of decrease in cellular viability. The EC50 value—the concentration at which an agent reduces cell viability by 50% of the maximum effect—was determined using PRISM™ software, version 5.0 (GraphPad Software, La Jolla, Calif., USA).
(§2) The compounds were tested against ADR, a multi-drug resistant breast cancer cell line as well as the H226, N87, and OVCAR3 cell lines.
(ATP-based viability assays read luminescence as a measure of living cells.)

The nature of data set [2]: Chemical stability observed on preparation and storage. It counts as physicochemical. The note with it: observation on handling and storage; both acid- and base-sensitive, slowly decomposed at −78° C.
A further data set has as its system OVCAR3 cell line. Put plainly: ATP luminescence (CellTiter-Glo) cell viability assay, OVCAR3. In kind it is cell-based. The note with it: Homo sapiens, read-out: EC50 (nM) OVCAR3. The method, then:
as §1, §2

The subject of another data set is H226 cell line. Put plainly: ATP luminescence (CellTiter-Glo) cell viability assay, H226. The note with it: Homo sapiens, read-out: EC50 (nM) H226. In kind it is cell-based. The method, then:
as §1, §2

The next data set deals with N87 cell line. Put plainly: ATP luminescence (CellTiter-Glo) cell viability assay, N87. In kind it is cell-based. The note with it: 72 h, read-out: EC50 (nM) N87. The method, then: as §1, §2
A further data set relates to cancer cells. The note with it: antitumor activity, Nicolaou et al. 2007, 2008; cited from earlier work.
Where [3] appears, read: ADR multidrug resistant breast cancer cell line, ATP content.
Setting [4] is: OVCAR-3, OVCAR3, 72 h, ATP content.
[5] abbreviates: NCI-H226, H226, 72 h, ATP content.

Read-outs that look alike come from different tables or passages of the source.

On to `C[C@@H](O)[C@@]12O[C@]13c1cc(O)c4c(c1N[C@H]2C#C/C=C\C#C[C@H]3O)C(=O)c1ccc(CN)cc1C4=O` [Compound 48aa, 8-Aminomethyl-uncialamycin], for which the concentration for a half-maximal effect (EC50) (as a rule, the concentration at which the effect is half-maximal) in data set [1] (setting [3]) amounted to 0.02 nM; in the data set on OVCAR3 cell line (setting [4]), 0.32 nM; in the data set with H226 cell line (setting [5]), 0.028 nM; in the data set with N87 cell line (N87, ATP content), 0.011 nM. In addition, the stability entry in data set [2] is recorded as “extremely unstable”.

Turning to `CC(C)[C@H](NC(=O)CCCCCN1C(=O)C=CC1=O)C(=O)N[C@@H](CCCNC(N)=O)C(=O)Nc1ccc(COC(=O)NCc2ccc3c(c2)C(=O)c2c(O)cc4c(c2C3=O)N[C@H]2C#C/C=C\C#C[C@@H](O)[C@@]43O[C@@]23[C@@H](C)O)cc1` [Compound 116], the EC50 came out at 3.3 nM in data set [1]; 16 nM in the data set with OVCAR3 cell line (OVCAR-3, 72 h); 4.2 nM in the data set with H226 cell line (NCI-H226, 72 h); 8.7 nM in the data set on N87 cell line.

`C[C@@H](O)[C@@]12O[C@]13c1cc(O)c4c(c1N[C@H]2C#C/C=C\C#C[C@H]3O)C(=O)c1cc(CN)ccc1C4=O` [Compound 48ba, 7-Aminomethyl-uncialamycin]: the EC50 in data set [1] (setting [3]) is 0.029 nM; in the data set with OVCAR3 cell line (setting [4]), 0.066 nM; in the data set with H226 cell line (setting [5]), 0.012 nM; in the data set with N87 cell line (N87, ATP content) it was 0.01 nM. In addition, in data set [2], the stability entry is reported as “extremely unstable”.

As to `C[C@@H](O)[C@@]12O[C@]13c1cc(O)c4c(c1N[C@H]2C#C/C=C\C#C[C@H]3O)C(=O)c1ccc(N)cc1C4=O` [Compound 36a, 8-Amino-uncialamycin, reference compound], the EC50 was 0.67 nM in data set [1] (setting [3]); 7.4 nM with OVCAR3 cell line (setting [4]); 2.4 nM in the data set on H226 cell line (setting [5]); 2.7 nM in the data set on N87 cell line (N87, ATP content).

Regarding `C[C@@H](O)[C@@]12O[C@]13c1cc(O)c4c(c1N[C@H]2C#C/C=C\C#C[C@H]3O)C(=O)c1cccc(CN)c1C4=O` [Compound 48da, 9-Aminomethyl-uncialamycin], the stability result in data set [2] is on record as “extremely unstable”.

As to `C[C@@H](O)[C@@]12O[C@]13c1cc(O)c4c(c1N[C@H]2C#C/C=C\C#C[C@H]3O)C(=O)c1cc2c(cc1C4=O)CNC2` [Compound 97, Isoindoline-uncialamycin 97], the stability result in data set [2] was “extremely unstable”.

Turning to `C[C@@H](O)[C@@]12O[C@]13c1cc(O)c4c(c1N[C@H]2C#C/C=C\C#C[C@@H]3O)C(=O)c1ccc(CN)cc1C4=O` [Compound 48ab], the concentration for a half-maximal effect (EC50) in data set [1] (setting [3]) amounted to 0.054 nM; in the data set with OVCAR3 cell line (setting [4]) it was 0.28 nM; with H226 cell line (setting [5]), 0.051 nM; in the data set with N87 cell line (N87, ATP content) it was 0.023 nM.

Consider `CNCc1ccc2c(c1)C(=O)c1c(O)cc3c(c1C2=O)N[C@H]1C#C/C=C\C#C[C@@H](O)[C@@]32O[C@@]12[C@@H](C)O` [Compound 108, N-methyl-8-aminomethyl-uncialamycin 108], for which the stability entry in data set [2] is listed as “extremely unstable”.

As for `COc1cc2c(c(OC)c1CN)C(=O)c1c(O)cc3c(c1C2=O)N[C@H]1C#C/C=C\C#C[C@@H](O)[C@@]32O[C@@]12[C@@H](C)O`, the EC50 was 0.34 nM in data set [1] (setting [3]); 0.4 nM in the data set on OVCAR3 cell line (setting [4]); 0.077 nM in the data set with H226 cell line (setting [5]); 0.15 nM with N87 cell line (N87, ATP content).

For `C[C@@H](O)[C@@]12O[C@]13c1cc(O)c4c(c1N[C@H]2C#C/C=C\C#C[C@H]3O)C(=O)c1c(CN)cccc1C4=O` [Compound 48ca, 6-Aminomethyl-uncialamycin], the stability entry in data set [2] is recorded as “extremely unstable”.

Turning to `C[C@@H](O)[C@@]12O[C@]13c1cc(O)c4c(c1N[C@H]2C#C/C=C\C#C[C@H]3O)C(=O)c1ccccc1C4=O` [Compound 26a, Uncialamycin], the melting point (as a rule, the temperature of the solid-liquid transition) is 175 °C (dec.). In data set [1] (setting [3]), the half-maximal effective concentration (EC50) is 0.39 nM. In the data set with cancer cells, the IC50 entry is on record as “picomolar”. Further, the 50% effective concentration (EC50) in the data set with OVCAR3 cell line (setting [4]) stood at 4.7 nM. Also, the half-maximal effective concentration (EC50) in the data set on H226 cell line (setting [5]) came to 1.8 nM. For the same compound, the EC50 in the data set with N87 cell line (N87, ATP content) is 1.8 nM.

Consider `C=CCOC(=O)N1c2c(cc(O)c3c2C(=O)c2ccc(CN)cc2C3=O)[C@@]23O[C@@]2([C@@H](C)O[Si](CC)(CC)CC)[C@@H]1C#C/C=C\C#C[C@H]3O` [Compound 111], for which the stability entry in data set [2] is recorded as “much more stable than 48aa”.
